Data taken from patent publication US4867973A, “Antibody-therapeutic agent conjugates” (Cytogen Corporation, priority 1984, dated 1989).
Ends that are not written are not given here. Peptide text beside a SMILES is read from it. * marks the point of attachment. AMC = Cc1cc(=O)oc2cc(N*)ccc12; Boc = CC(C)(C)OC(=O)*

How the values were obtained:
Assay type in all cases: biochemical
trypsin [1] = assay: Fluorescence assay of AMC release from peptide linker by trypsin; settings: for Cleavage Rates, Trypsin: trypsin 0.1 ug/ml, peptide 5 uM
Method: (§1) The rates of cleavage for the peptide linker were measured by fluorescence quenching using a Perkin Elmer 650-10S fluorescence spectrometer (Perkin-Elmer Corporation, Norwalk, Conn.). The excitation and emission wavelengths were 380 nm and 460 nm, respectively and the temperature was maintained at 25° C. with a Lauda k-2/R circulating water bath (Brinkmann Instruments, Westbury, N.Y.).
(§2) The initial concentrations of Gly-Gly-Arg-AMC were determined by optical density, Σ^1M325 =16,000. The solutions were adjusted to 1 uM concentrations. One ml of the 1 uM solution in PBS, pH 7.4 was placed in a cuvette. The appropriate amounts of enzyme (1 ug/ml trypsin or 10 ug/ml urokinase) was then added at room temperature with stirring using a motor-driven syringe and the reaction kinetics were followed for several minutes. The fluorescence intensity of a known concentration of free AMC was established and used as a baseline to determine the change in units per nM/minute of free AMC in this fluorescence assay system.
(§3) In another experiment, the Gly-Gly-Arg-AMC concentration was 100 uM and the trypsin used at 100 ug/ml. In another embodiment of the present invention, the Gly-Gly-Arg-AMC was conjugated to oxidized dextran which can serve as a spacer as described in Section 5.4.3 (10,000 molecular weight) (Pharmacia Fine Chemicals, Piscataway, N.J.) by the methods of the present invention using a molar ratio of Gly-Gly-Arg-AMC to dextran of 58:1. Dextran-Gly-Gly-Arg-AMC was separated with a 6.5 ml Sephadex® G-25 column (Pharmacia Fine Chemicals, Piscataway, N.J.).
(§4) Peptide sequences that are analogs of complement components were cleaved by trypsin (0.1 ug/ml), urokinase (0.1 ug/ml), plasmin (1 ug/ml) and purified complement components C4,2 and C1s (40 ug/ml). The data in Table V compare the cleavage rates (nM/minute) of these sequences. The fluorescence assay described in Section 8 for cleavage of Gly-Gly-Arg-AMC was used here. Complement components were purified and assayed by the method of Tack and Prahl (Biochem., 1976, 15:4513-4521).

urokinase [2] = biological target: T1, urokinase (Homo sapiens, UniProt P00749); assay: Fluorescence assay of AMC release from peptide linker by urokinase; settings: urokinase 0.1 ug/ml; peptide 5 uM
Method: as §1, §2, §3, §4

[3] = biological target: T2, purified complement component C4,2 (Homo sapiens, UniProt P06681); assay: Fluorescence assay of AMC release by purified complement component C4,2; settings: 40 ug/ml enzyme; peptide 5 uM
T2 construct: from tissue
Method: as §4

plasmin = plasmin (Homo sapiens, UniProt P00747); assay: Fluorescence assay of AMC release by plasmin; settings: plasmin 1 ug/ml; peptide 5 uM
Method: as §4

[4] = biological target: T3, purified complement component C1s (Homo sapiens, UniProt P09871); assay: Fluorescence assay of AMC release by purified complement component C1s; settings: 10 ug/ml enzyme; peptide 5 uM
T3 construct: from tissue
T3 sequence (P09871 16-688): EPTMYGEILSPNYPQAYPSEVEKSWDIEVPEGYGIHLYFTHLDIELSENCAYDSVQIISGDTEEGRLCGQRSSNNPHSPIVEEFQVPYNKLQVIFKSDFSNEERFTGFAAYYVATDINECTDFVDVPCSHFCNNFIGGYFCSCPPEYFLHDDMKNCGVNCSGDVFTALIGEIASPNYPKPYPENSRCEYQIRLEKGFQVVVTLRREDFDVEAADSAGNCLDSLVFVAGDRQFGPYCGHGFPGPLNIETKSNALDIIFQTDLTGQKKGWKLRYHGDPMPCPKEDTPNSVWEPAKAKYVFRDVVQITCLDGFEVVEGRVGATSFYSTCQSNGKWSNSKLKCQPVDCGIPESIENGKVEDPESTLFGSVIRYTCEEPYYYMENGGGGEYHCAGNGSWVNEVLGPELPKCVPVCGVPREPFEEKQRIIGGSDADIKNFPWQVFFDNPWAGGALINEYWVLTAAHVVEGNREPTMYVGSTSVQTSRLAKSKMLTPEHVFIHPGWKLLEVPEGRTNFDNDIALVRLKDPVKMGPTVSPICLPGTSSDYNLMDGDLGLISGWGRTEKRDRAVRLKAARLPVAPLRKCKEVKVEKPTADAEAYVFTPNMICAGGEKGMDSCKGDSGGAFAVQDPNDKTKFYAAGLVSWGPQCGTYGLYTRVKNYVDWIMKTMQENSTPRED
Text: The data in Table V compare the cleavage rates (nM/minute) of these sequences. The fluorescence assay described in Section 8 for cleavage of Gly-Gly-Arg-AMC was used here. Complement components were purified and assayed by the method of Tack and Prahl (Biochem., 1976, 15:4513-4521).

urokinase [5] = biological target: T1, urokinase; assay: Release of 125I-Tyr from radiolabeled peptide by urokinase (agarose gel electrophoresis or TLC); settings: urokinase 10 ug/ml; substrate 0.1 uM; 125I-Tyr release
Method: (§5) For the purposes of the present example, the tetrapeptide Glycine-Glycine-Arginine-Tyrosine was radiolabeled at the amino acid residue tyrosine with 125 Iodine (125 I) (Greenwood et al. 1963, Biochem. J. 88: 114-120). This radiolabeled compound is hereinafter referred to as Gly-Gly-Arg-Tyr* (wherein the * denotes ^125 I).
(§6) The peptide Gly-Gly-Arg-Tyr* was assayed for the release of the 125I labeled tyrosine residue by agarose gel electrophoresis or thin-layer chromatography (TLC, Sono and Asakura, 1974, Biochem 13:4386-4394). Briefly, appropriate amounts of enzyme were added to a reaction tube containing 0.1 uM Gly-Gly-Arg-Tyr in PBS, pH 7.4. The mixture was incubated at 37° C. for 30 minutes. Three ul of this reaction mixture were then applied to an agarose gel (1%) and run at high voltage (120 V/cm) in Barbitol Buffer, 0.025 M sodium diethylbarbituate HCl buffer, pH 8.6. Three ul of bromophenol blue solution was used as a marker to determine the end of the run. The agarose gel was then cut into sections and counted in a LKB 1271 gamma counter (LKB Instruments, Gaithersburg, Md.) to determine if the Tyr remained at the origin or migrated through the gel. Alternatively, samples were separated and identified by TLC as described supra. […] The plate was dried and divided into ten sections which were counted in a gamma counter. […]

trypsin [6] = assay: Release of 125I-Tyr from radiolabeled peptide by trypsin (agarose gel electrophoresis or TLC); settings: trypsin 1 ug/ml; substrate 0.1 uM; 125I-Tyr release
Method: as §5, §6

T2 sequence (P06681 244-752 limits assumed): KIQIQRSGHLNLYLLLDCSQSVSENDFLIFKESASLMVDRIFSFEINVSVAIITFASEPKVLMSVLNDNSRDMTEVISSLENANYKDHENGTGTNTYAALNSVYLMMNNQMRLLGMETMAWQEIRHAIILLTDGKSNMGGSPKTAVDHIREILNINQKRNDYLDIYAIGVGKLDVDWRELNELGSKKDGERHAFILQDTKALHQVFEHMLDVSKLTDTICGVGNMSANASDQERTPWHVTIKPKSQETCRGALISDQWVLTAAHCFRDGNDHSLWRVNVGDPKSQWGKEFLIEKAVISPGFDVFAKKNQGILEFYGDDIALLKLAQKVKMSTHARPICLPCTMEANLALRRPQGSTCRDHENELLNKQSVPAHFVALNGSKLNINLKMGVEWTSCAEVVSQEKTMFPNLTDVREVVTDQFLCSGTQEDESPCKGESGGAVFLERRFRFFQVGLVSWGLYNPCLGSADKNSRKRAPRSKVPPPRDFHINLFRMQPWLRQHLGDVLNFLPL
T2 sequence (P0C0L4 20-675 partner limits assumed): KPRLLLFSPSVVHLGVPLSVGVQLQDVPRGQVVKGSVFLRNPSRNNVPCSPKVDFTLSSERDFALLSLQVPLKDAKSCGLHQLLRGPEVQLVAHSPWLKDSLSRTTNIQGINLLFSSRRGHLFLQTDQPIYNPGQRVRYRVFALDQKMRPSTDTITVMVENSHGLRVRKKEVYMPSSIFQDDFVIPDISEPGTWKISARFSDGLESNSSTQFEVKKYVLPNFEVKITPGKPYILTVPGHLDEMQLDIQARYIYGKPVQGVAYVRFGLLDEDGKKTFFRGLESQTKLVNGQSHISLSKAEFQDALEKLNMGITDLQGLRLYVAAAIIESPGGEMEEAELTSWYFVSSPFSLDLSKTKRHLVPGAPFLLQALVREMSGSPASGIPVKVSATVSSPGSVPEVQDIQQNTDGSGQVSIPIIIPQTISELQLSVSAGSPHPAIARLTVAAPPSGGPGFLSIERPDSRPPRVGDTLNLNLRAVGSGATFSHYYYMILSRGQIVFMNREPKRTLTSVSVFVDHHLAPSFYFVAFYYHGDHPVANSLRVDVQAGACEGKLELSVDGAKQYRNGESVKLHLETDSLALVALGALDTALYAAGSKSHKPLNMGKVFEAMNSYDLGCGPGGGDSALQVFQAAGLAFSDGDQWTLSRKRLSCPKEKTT
T2 sequence (P0C0L4 757-1446 partner limits assumed): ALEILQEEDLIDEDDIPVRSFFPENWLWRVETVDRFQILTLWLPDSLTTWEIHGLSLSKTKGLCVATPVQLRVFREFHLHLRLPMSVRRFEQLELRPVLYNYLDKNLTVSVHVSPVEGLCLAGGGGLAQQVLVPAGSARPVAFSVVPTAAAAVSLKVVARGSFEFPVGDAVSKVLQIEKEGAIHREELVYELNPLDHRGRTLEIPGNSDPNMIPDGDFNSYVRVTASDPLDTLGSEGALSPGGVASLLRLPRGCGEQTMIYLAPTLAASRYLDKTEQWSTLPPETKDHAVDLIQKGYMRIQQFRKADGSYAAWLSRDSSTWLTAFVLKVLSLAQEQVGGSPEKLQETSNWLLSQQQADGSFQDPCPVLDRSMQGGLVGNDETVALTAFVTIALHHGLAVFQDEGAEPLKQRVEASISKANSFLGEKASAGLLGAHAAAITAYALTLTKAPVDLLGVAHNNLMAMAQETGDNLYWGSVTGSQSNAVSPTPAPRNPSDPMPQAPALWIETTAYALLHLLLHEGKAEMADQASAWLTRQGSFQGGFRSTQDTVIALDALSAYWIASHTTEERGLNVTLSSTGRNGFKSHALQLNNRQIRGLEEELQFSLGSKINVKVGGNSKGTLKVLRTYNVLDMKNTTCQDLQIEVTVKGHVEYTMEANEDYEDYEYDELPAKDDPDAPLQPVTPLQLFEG
T2 sequence (P0C0L4 1454-1744 partner limits assumed): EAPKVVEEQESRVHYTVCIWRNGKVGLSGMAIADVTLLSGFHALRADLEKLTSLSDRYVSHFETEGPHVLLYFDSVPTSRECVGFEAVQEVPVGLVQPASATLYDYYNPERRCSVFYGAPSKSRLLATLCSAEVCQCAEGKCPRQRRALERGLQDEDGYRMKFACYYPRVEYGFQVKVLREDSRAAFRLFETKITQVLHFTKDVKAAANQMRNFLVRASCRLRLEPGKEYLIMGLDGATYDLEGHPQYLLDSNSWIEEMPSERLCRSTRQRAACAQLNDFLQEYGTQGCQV
plasmin, sequence (P00747 581-810 limits assumed, species assumed): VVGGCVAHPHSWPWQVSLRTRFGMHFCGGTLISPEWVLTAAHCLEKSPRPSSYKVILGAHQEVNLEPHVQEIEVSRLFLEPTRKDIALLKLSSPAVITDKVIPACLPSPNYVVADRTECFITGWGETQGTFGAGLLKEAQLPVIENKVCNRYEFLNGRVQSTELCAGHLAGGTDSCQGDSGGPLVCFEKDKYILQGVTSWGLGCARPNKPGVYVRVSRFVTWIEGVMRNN
plasmin, sequence (P00747 97-580 partner limits assumed, species assumed): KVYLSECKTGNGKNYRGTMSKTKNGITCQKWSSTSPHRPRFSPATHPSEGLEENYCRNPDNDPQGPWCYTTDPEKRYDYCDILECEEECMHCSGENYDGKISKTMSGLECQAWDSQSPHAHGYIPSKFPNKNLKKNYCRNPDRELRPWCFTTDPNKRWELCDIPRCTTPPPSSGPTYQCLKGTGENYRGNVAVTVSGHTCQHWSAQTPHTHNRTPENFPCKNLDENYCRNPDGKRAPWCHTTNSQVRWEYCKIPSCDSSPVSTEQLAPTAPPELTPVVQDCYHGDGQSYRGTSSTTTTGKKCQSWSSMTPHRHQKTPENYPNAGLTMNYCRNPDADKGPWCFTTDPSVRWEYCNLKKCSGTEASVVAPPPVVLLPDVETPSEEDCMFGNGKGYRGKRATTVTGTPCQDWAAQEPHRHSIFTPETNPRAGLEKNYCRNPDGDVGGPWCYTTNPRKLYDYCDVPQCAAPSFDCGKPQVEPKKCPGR

Row | Cleavage Rates, Urokinase (urokinase [2]) [nM/min] | Compound | Cleavage Rates, Trypsin (trypsin [1]) [nM/min] | further results
1 | 2.8 | Cc1cc(=O)oc2cc(NC(=O)[C@H](CCCNC(=N)N)NC(=O)CNC(=O)[C@@H](NC(=O)OC(C)(C)C)C(C)C)ccc12 [Boc-Val-Gly-Arg-AMC] (Boc-Val-Gly-Arg-{AMC}) | 720 | –
2 | 0 | Cc1cc(=O)oc2cc(NC(=O)[C@H](CCCNC(=N)N)NC(=O)[C@@H]3CCCN3C(=O)[C@@H](NC(=O)OC(C)(C)C)C(C)C)ccc12 [Boc-Val-Pro-Arg-AMC] (Boc-Val-Pro-Arg-{AMC}) | 3.8 | –
3 | 0 | Cc1cc(=O)oc2cc(NC(=O)[C@H](CCCNC(=N)N)NC(=O)[C@H](Cc3ccccc3)NC(=O)[C@@H]3CCCN3)ccc12 [Pro-Phe-Arg-AMC] (H-Pro-Phe-Arg-{AMC}) | 0 | –

Second part, the compound before the results:

Row | Compound | Cleavage Rates, Urokinase (urokinase [2]) [nM/min] | Cleavage Rates, Trypsin (trypsin [1]) [nM/min] | further results
4 | Cc1cc(=O)oc2cc(NC(=O)[C@H](CCCNC(=N)N)NC(=O)[C@H](CCCNC(=N)N)NC(=O)[C@H](CCC(=O)O)NC(=O)OC(C)(C)C)ccc12 [Boc-Glu-Arg-Arg-AMC] (Boc-Glu-Arg-Arg-{AMC}) | 0 | 3.7 | –
5 | Cc1cc(=O)oc2cc(NC(=O)[C@H](CCCNC(=N)N)NC(=O)CNC(=O)[C@H](CC(C)C)NC(=O)OC(C)(C)C)ccc12 [Boc-Leu-Gly-Arg-AMC, Boc-leu-gly-arg-7-amino-4-methylcoumarin] (Boc-Leu-Gly-Arg-{AMC}) | 3.7 | 750 | –
6 | Cc1cc(=O)oc2cc(NC(=O)[C@H](CCCNC(=N)N)NC(=O)[C@H](CO)NC(=O)[C@H](Cc3ccccc3)NC(=O)OC(C)(C)C)ccc12 [Boc-Phe-Ser-Arg-AMC] (Boc-Phe-Ser-Arg-{AMC}) | 0.044 | 17 | –
7 | Cc1cc(=O)oc2cc(NC(=O)[C@H](CCCNC(=N)N)NC(=O)CNC(=O)[C@@H](N)CCC(=O)O)ccc12 [Glu-Gly-Arg-AMC] (H-Glu-Gly-Arg-{AMC}) | 35 | 140 | –
8 | Cc1cc(=O)oc2cc(NC(=O)[C@H](CCCCN)NC(=O)[C@H](CCCCN)NC(=O)[C@@H](N)CCC(=O)O)ccc12 [Glu-Lys-Lys-AMC] (H-Glu-Lys-Lys-{AMC}) | 0 | 0.62 | –
9 | Cc1cc(=O)oc2cc(NC(=O)[C@H](CCCNC(=N)N)NC(=O)CNC(=O)CN)ccc12 [Gly--Gly--Arg--AMC, Gly-Gly-Arg-AMC] | 27 | 450 | Cleavage Rates, complement component (column head drawing 17) [3]: 0.9 to 1.2 nM/min; Cleavage Rates Released Group, Trypsin (trypsin [1]; trypsin 100 ug/ml, substrate 100 uM): 20,000 nM/min.; Cleavage Rates, Plasmin (plasmin): 0.005 nM/min; Cleavage Rates, complement component (column head drawing 18) [4]: 0.9 to 1.2 nM/min
10 | Glycine-Glycine-Arginine-Tyrosine [Gly--Gly--Arg--Tyr*] | – | – | Cleavage Rates Released Group, Urokinase (urokinase [5]): .01 nM/min; Cleavage Rates Released Group, Trypsin (trypsin [6]): 4 nM/min
11 | PGRVVGY [Pro--Gly--Arg--Val--Val--Gly--Tyr*, plasminogen analog] | – | – | Cleavage Rates Released Group, Urokinase (urokinase [5]): .01 nM/min; Cleavage Rates Released Group, Trypsin (trypsin [6]): 3 nM/min
